These results are taken from US20160213632A1, “Memory Performance and Prevention and Treatment of Neurodegenerative Diseases” (Max Planck Florida Institute for Neuroscience, priority 2015, published 2016).

“Also recorded” adds a separate entry of the source.

One assay has as its system organotypic slices. To be noted: organotypic slices (Szatmari et al, 2013); cited from earlier work.
Another assay deals with CA1 neurons. The experiment in a line: Dendritic spine density in cultured (organotypic) hippocampal slices treated with Aβ. It is filed as cell-based, mice. On the procedure: Organotypic hippocampal slice cultures (300 μm thick) were prepared from mice at postnatal day 6 or 7. After 1 week in culture, slices were transfected using biolistic gene transfer. Aβ stock solution (200 μM) was prepared in 1% NH4OH as a vehicle and added directly to the culture medium at a final concentration of 1 μM. FTI-277 was dissolved in DMSO and added directly to the culture medium at a final concentration of 10 μM.

Another assay relates to ERK1/2. The experiment in a line: Western blotting for active/phosphorylated ERK1/2 in AD model mice. It is filed as in vivo. To be noted: daily IP injections for 3 consecutive days. How it is done: (§1) As a model for AD, male hAPPJ20 transgenic mice were used (Mucke et al., 2000). Non-transgenic male littermates were used for controls.
Protein expression and/or phosphorylation was evaluated by standard western blotting protocol using the following antibodies: goat anti-centaurin-α1 (Abcam; 1:500); mouse anti-β-actin (Sigma, 1:2000); mouse 6E10 (Covance, 1:1000); rabbit anti-phosphoERK1/2 (Cell Signaling Technologies, 1:1000); mouse anti-ERK1/2 (Cell Signaling Technologies, 1:1000); mouse anti-Ras (Pierce, 1:1000); rabbit anti-Hsp10 (Cell Signaling Technologies, 1:1000); rabbit anti-Hsp60 (Cell Signaling Technologies, 1:1000); and HRP-labeled anti-mouse, anti-goat, or anti-rabbit IgG antibodies (BioRad; 1:2000).
A general note: Immunoblotting shows a protein as a band on a membrane.

In a further assay the test system is Ras. The experiment in a line: Active Ras pull-down assay in hippocampus of AD model (APP) mice. The conditions noted are these: hippocampus of 6 months old APP mice; daily IP injections for 3 consecutive days. Format: in vivo. On the procedure:
as §1
The level of active Ras in hippocampal lysates from CentA1 KO mice and their wild type litter mates was measured with an active Ras pull-down and detection kit and following the instructions from manufacturer (Thermo Scientific). Western blotting was conducted with mouse anti-Ras antibody.

Regarding `COC(=O)[C@H](CCSC)NC(=O)c1ccc(NC[C@@H](N)CS)cc1-c1ccccc1` [FTI-277], the “Aβ-induced decreased mEPSC frequency” value in the assay with organotypic slices is “prevented”. The Aβ-induced spine loss entry with CA1 neurons (organotypic slices, FTI-277 10 μM, Aβ 1 μM) is “prevented”.

With `CSCC[C@H](NC(=O)c1ccc(NC[C@@H](N)CS)cc1-c1ccccc1)C(=O)O` [FTI-276], the “active/phosphorylated ERK1/2 (downstream of Ras)” value in the assay on ERK1/2 is “reduces the activity of signaling pathways downstream of Ras; also recorded: reduced phosphorylation/activation of ERK1/2”. Moreover, in the assay on CA1 neurons (cultured hippocampal slices, vehicle or Aβ in presence or absence of FTI-276 (FIG. 6D)), the “dendritic spine density in CA1 neurons exposed to Aβ” value was “restored”. Moreover, the “Ras activity (pull-down assay)” value in the assay on Ras is “reduced; also recorded: prevented Ras hyperactivation”.
